Laboratory results reported in patent publication EP0369733A2, “Fluorescent indicator dyes for alkali metal cations, their preparation and use” (THE REGENTS OF THE UNIVERSITY OF CALIFORNIA, priority 1988, dated 1990).
Read-outs that look alike come from different tables or passages of the source.

Tests used:
[1] = Cation titration followed by absorbance or fluorescence excitation spectra: Na⁺ binding
Method: (§1) • Footnote a: For molecular structures, see Fig. 1. • Footnote b: Except where otherwise noted, these dissociation constants were measured with the chelator dissolved in 0.1 M tetramethylammonium chloride, at a pH held high enough with 1-5 mM tris(hydroxymethyl)aminomethane for protonation to be insignificant. The absorbance spectrum, or the fluorescence excitation spectrum for those compounds (2GG, 2NN, 2OO, 2PP, 3NN) with acronyms was measured as a function of the concentration of cation added as a solid or concentrated aqueous solution of the halide salt. No correction has been made for the changing ionic strength of the solution, which started from 0.1 M and increased, but the absorbances and fluorescence amplitudes were applied for dilution of the dye and any slight quenching due to high concentrations of Cl⁻. • Footnote c: These protonation constants were determined in 0.1 M tetramethylammonium chloride, 10 mM tris(hydroxymethyl)aminomethane, titrated with 5 M H₃PO₄ to successively lower pH values measured with a Radiometer PHM84 meter. […] The first number is the wavelength in nanometers, followed in parentheses by 10⁻³ x the corresponding extinction coefficient, M⁻¹cm⁻¹. […] Emission maxima are not corrected for the spectral sensitivity of the emission detection. Quantum efficiencies were measured (13) by comparing the integral of the corrected emission spectrum with the corresponding integral for a solution of quinine bisulfate in 1 N H₂SO₄ of matched absorbance at the excitation wavelength.
Affinities for other cations were usually measured by titrating aqueous solutions of the indicator with metal chlorides added either as solid or from concentrated stock solutions, taking care to minimize dilution and correct for it. A convenient way to mass-produce premeasured micromole to millimole aliquots of solid NaCl or KCl was to pipet saline solutions into polypropylene micro test tubes and evaporate the water in an oven. The standard ionic background was again 100 mM tetramethylammonium chloride, usually with a few mM of tris(hydroxymethyl)-aminomethane base to hold the pH high enough (pH 8-9) to insure that protonation was negligible. This convenient titration procedure had the slight disadvantage that the ionic strength was not constant, especially when large quantities of a salt had to be added due to weak affinities. […] When constant ionic strength was desired, the chelator was made up at identical concentrations in matched solutions of NaCl, KCl, or tetramethylammonium chloride, then these stocks were mixed in the desired proportions. All measurements were made at room temperature (22°, ±2° C).

[2] = physchem; details: 126 mm kcl, 14 mm nacl
Method: The lowest curve ([Na⁺] = 0) was obtained with 5 µM SBFI in 130 mM KCl, 10 mM MOPS, KOH to pH 7.05, approximately 135 mM total K⁺. The highest curve ([Na⁺] = 135 mM) was analogously recorded from 5 µM SBFI in 130 mM NaCl, 10 mM MOPS, NaOH to pH 7.05. The intermediate curves from 1.35 to 94.5 mM Na⁺ were obtained by successively 1/100, 1/99, 3/98, 1/19, 1/9, 1/4, and 1/2 of the K⁺-rich SBFI solution by the SBFI in Na medium. The excitation bandwidth was 1.85 nm; emission was collected at 500 nm with 9.3 nm bandwidth. […] The lowest curve was obtained in 130 mM NaCl, 10 mM MOPS, NaOH to pH 7.05. The highest curve was in 130 mM KCl, 10 mM MOPS, KOH to pH 7.05. The intermediate curves with 13.5 to 112.5 mM K⁺ were obtained by iteratively replacing 1/10, 1/9, 1/6, 1/4, 1/3, and 1/2 of the low K⁺ medium by the 135 mM KCl solution of PBFP.
Proton dissociation constants of the chelators were measured by spectrophotometry or spectrofluorometry of buffered solutions, containing either 100 mM tetramethylammonium chloride as inert supporting electrolyte, or 121.5 mM K⁺, 13.5 mM Na⁺, and 1 mM Mg²⁺ to simulate the cation environment of vertebrate cytoplasm (14). […] When the chelators contained two protonatable nitrogens, the curve of absorbance or fluorescence versus pH was analyzed by computerized least-squares fitting to the equations for two arbitrary proton equilibria (15), with the added assumption that the two protonations each caused the same change in extinction coefficient or fluorescence. This assumption was based on the presence of two identical chromophores in each chelator and produced good fits to the experimental data.

[3] = Non-specific quenching of fluorescence by CsCl; format: physicochemical
Method: Selectivities of SBFP and SBFI against other cations are also adequate (Table I). […] Ratioing therefore not only normalizes for amount of dye in the optical path but also improves the discrimination against pH changes. […] Dissociation constants for Mg²⁺ and Ca²⁺ are high enough (about 60 mM and 38 mM respectively) for cytosolic levels of those ions to have insignificant effect. Curiously, Ca²⁺ is unique in causing a large hypsochromic shift of the emission peak, to 432 nm. All the above-mentioned salts except tetramethylammonium seem to cause a slight non-specific quenching of SBFI at very high concentrations. For example, CsCl causes no spectral shift at all, but 100, 200, and 500 mM CsCl depress the fluorescence by 9, 14, and 21% from the metal-free level. This effect is not a heavy-atom effect of Cs, since large excesses of Li⁺, Na⁺, and K⁺ also slightly quench their SBFI complexes. It may represent weak quenching by Cl⁻, since acetate and fluoride gave much less of the effect.

[4] = Fluorescence excitation/emission spectra and quantum efficiency; format: physicochemical; details: for Quantum efficiency -Na⁺ / Quantum efficiency +Na⁺: relative to quinine bisulfate in 1 N H₂SO₄ (0.55); for Quantum efficiency +Na⁺: saturating Na⁺
Method: as §1
UV absorbance spectra were recorded initially on a Cary 210 and later on a Perkin-Elmer Lambda Array 3840 spectrophotometer. Fluorescence excitation and emission spectra and quantum efficiencies were measured on a Spex Fluorolog 111 as described previously (13).

Kd ([1]; 0.1 M tetramethylammonium chloride, 1-5 mM tris(hydroxymethyl)aminomethane, pH high enough for protonation to be insignificant, 22°, read-out: Dissociation constants (Kd) in mM for Na⁺): 7.4 mM
Na⁺ affinity ([1]; association constant, inert background cation (tetramethylammonium)): 166 M⁻¹
Kd ([1]; summary statement, conditions not specified, read-out: dissociation constant (Na⁺), range achieved): 5 to 20 mM
pKa [2]: 6.09
Emission maxima -Na⁺ ([4]; 100 mM tetramethylammonium chloride, no Na⁺, not corrected for detector sensitivity): 551 nanometers
emission peak with Ca²⁺ ([4]; Ca²⁺ bound, large hypsochromic shift): 432 nm
excitation peak wavelength without Na⁺ ([4]; Na⁺-K⁺ mixtures, sum 135 mM, K⁺ only): 344 nm
excitation peak wavelength with Na⁺ ([4]; Na⁺-K⁺ mixtures, sum 135 mM, Na⁺ bound): 336 nm
Quantum efficiency -Na⁺ ([4]; no Na⁺, listed as 2PP (SBFI)): .045
Quantum efficiency -Na⁺ ([4]; no Na⁺, listed as SBFI): 0.045
Emission maxima +Na⁺ ([4]; saturating NaCl, not corrected for detector sensitivity): 525 nanometers
Quantum efficiency +Na⁺ ([4]; listed as 2PP (SBFI)): .063
Quantum efficiency +Na⁺ ([4]; listed as SBFI): 0.08
Structure (SMILES): COc1cc2cc(-c3ccc(C(=O)O)cc3C(=O)O)oc2cc1N1CCOCCOCCN(c2cc3oc(-c4ccc(C(=O)O)cc4C(=O)O)cc3cc2OC)CCOCC1 [Compound 2PP, N,N-bis-(2-(2,4-dicarboxyphenyl)-5-methoxybenzofuran-6-yl)-diaza[15]-crown-5]
depression of fluorescence from the metal-free level ([3]; 100 mM CsCl): 9%
depression of fluorescence from the metal-free level ([3]; 200 mM CsCl): 14%
depression of fluorescence from the metal-free level ([3]; 500 mM CsCl): 21%
